Experimental data: the supplement of paper PMC10627819

Key:
S. pneumoniae D39V [1] = assay: Bliss interaction score (quartile over a dose matrix) (fitness difference); higher = more antagonism (negative = synergy)
Method in brief: (§1)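 Fitness was defined as normalised growth: OD595 at the start of stationary phase divided by the plate's robust no-drug mean and capped at 1. Single-drug fitness was inferred from combination measurements. The Bliss score is observed fitness minus the product of the single-drug values, summarised by quartiles across technical, biological and donor/recipient replicates.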

S. aureus DSM 20231 [2] = assay: as above
Method in brief: as §1

S. aureus Newman [3] = assay: as above
Method in brief: as §1

B. subtilis 168 [4] = assay: as above
Method in brief: as §1

S. pneumoniae D39V [5] = assay: fitness (endpoint OD595 vs no drug) (fraction); higher = more growth
Method in brief: (§2)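 Bacterial fitness was scored as optical density at the stationary-phase transition relative to the robust mean of no-drug control wells. Scores are capped at 1. The growth data were OD595 readings every 30 min for 14 h at 37 °C, background-subtracted against the first reading, from 384-well plates inoculated at OD595 0.01 in TSB, LB Lennox or CY.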

S. aureus DSM 20231 [6] = assay: as above
Method in brief: as §2

S. aureus Newman [7] = assay: as above
Method in brief: as §2

B. subtilis 168 [8] = assay: as above
Method in brief: as §2
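Wherever Bliss interaction score (quartile over a dose matrix) is given: first quartile when negative (synergy) and third quartile when positive (antagonism).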
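Wherever fitness (endpoint OD595 vs no drug) is given: OD595 on entry to stationary phase over no-drug wells; at most 1.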

CO/N=C(\C(=O)N[C@@H]1C(=O)N2C(C(=O)O)=C(COC(C)=O)CS[C@H]12)c1csc(N)n1 [Cefotaxime] + CCN(CC)CCOC(=O)c1ccc(N)cc1 [Procaine]
Conditions	Bliss interaction score
B. subtilis 168 [4]	0.0852
S. aureus DSM 20231 [2]	-0.0909
S. aureus Newman [3]	-0.0467
S. pneumoniae D39V [1]	-0.0264

fitness
Conditions	partner 85.5 µg/mL	partner 171 µg/mL	partner 342 µg/mL
B. subtilis 168 [8], first compound 0.5 µg/mL	0.243	0.225	0.259
B. subtilis 168 [8], first compound 1 µg/mL	0.165	0.125	0.169
B. subtilis 168 [8], first compound 2 µg/mL	0.0861	0.0682	0.118
S. aureus DSM 20231 [6], first compound 0.078 µg/mL	0.721	0.786	0.77
S. aureus DSM 20231 [6], first compound 0.156 µg/mL	0.62	0.703	0.712
S. aureus DSM 20231 [6], first compound 0.312 µg/mL	0.579	0.67	0.664
S. aureus Newman [7], first compound 0.625 µg/mL	0.169	0.111	0.139
S. aureus Newman [7], first compound 1.25 µg/mL	0.0581	0.0383	0.0412
S. aureus Newman [7], first compound 2.5 µg/mL	0.0238	0.0269	0.0485
S. pneumoniae D39V [5], first compound 0.0018 µg/mL	≥ 1	≥ 1	≥ 1
S. pneumoniae D39V [5], first compound 0.0035 µg/mL	0.954	≥ 1	0.945
S. pneumoniae D39V [5], first compound 0.007 µg/mL	0.904	0.92	0.844

fitness, one replicate
Conditions	partner 85.5 µg/mL	partner 171 µg/mL	partner 342 µg/mL
B. subtilis 168 [8], first compound 0.00775 µg/mL	0.834	0.848	0.811
B. subtilis 168 [8], first compound 0.0155 µg/mL	0.701	0.691	0.64
B. subtilis 168 [8], first compound 0.031 µg/mL	0.583	0.572	0.561
S. aureus DSM 20231 [6], first compound 0.039 µg/mL	0.632	0.766	0.762
S. aureus Newman [7], first compound 0.078 µg/mL	0.608	0.612	0.595
S. aureus Newman [7], first compound 0.156 µg/mL	0.454	0.459	0.438
S. aureus Newman [7], first compound 0.312 µg/mL	0.276	0.255	0.264

COc1ccc(C[C@H](N)C(=O)N[C@H]2[C@@H](O)[C@H](n3cnc4c(N(C)C)ncnc43)O[C@@H]2CO)cc1 [Puromycin] + CN[C@@H]1[C@H](O)[C@H](NC)[C@H]2O[C@@]3(O)C(=O)C[C@@H](C)O[C@H]3O[C@@H]2[C@H]1O [Spectinomycin]
Conditions	Bliss interaction score
B. subtilis 168 [4]	0.0392
S. aureus DSM 20231 [2]	0.0575
S. aureus Newman [3]	0.0745
S. pneumoniae D39V [1]	0.0718

fitness
Conditions	first compound 0.39 µg/mL	first compound 0.78 µg/mL	first compound 1 µg/mL	first compound 1.56 µg/mL	first compound 2 µg/mL	first compound 4 µg/mL
B. subtilis 168 [8], partner 2 µg/mL	0.951	0.94	–	0.979	–	–
B. subtilis 168 [8], partner 4 µg/mL	0.948	0.952	–	0.963	–	–
B. subtilis 168 [8], partner 8 µg/mL	0.859	0.881	–	0.848	–	–
S. aureus DSM 20231 [6], partner 4 µg/mL	0.959	0.943	–	0.965	–	–
S. aureus DSM 20231 [6], partner 8 µg/mL	0.957	0.998	–	0.956	–	–
S. aureus DSM 20231 [6], partner 16 µg/mL	0.943	0.884	–	0.888	–	–
S. aureus Newman [7], partner 4 µg/mL	0.912	0.922	–	0.964	–	–
S. aureus Newman [7], partner 8 µg/mL	0.962	0.95	–	0.937	–	–
S. aureus Newman [7], partner 16 µg/mL	0.914	0.904	–	0.873	–	–
S. pneumoniae D39V [5], partner 4 µg/mL	–	–	0.931	–	0.951	0.772
S. pneumoniae D39V [5], partner 8 µg/mL	–	–	0.877	–	0.892	0.728

one replicate
Conditions	fitness
S. aureus DSM 20231 [6], first compound 0.39 µg/mL, partner 32 µg/mL	0.741
S. aureus DSM 20231 [6], first compound 0.39 µg/mL, partner 64 µg/mL	0.11
S. aureus DSM 20231 [6], first compound 0.78 µg/mL, partner 32 µg/mL	0.802
S. aureus DSM 20231 [6], first compound 0.78 µg/mL, partner 64 µg/mL	0.172
S. aureus DSM 20231 [6], first compound 1.56 µg/mL, partner 32 µg/mL	0.757
S. aureus DSM 20231 [6], first compound 1.56 µg/mL, partner 64 µg/mL	0.142
S. aureus DSM 20231 [6], first compound 3.12 µg/mL, partner 4 µg/mL	0.923
S. aureus DSM 20231 [6], first compound 3.12 µg/mL, partner 8 µg/mL	0.948
S. aureus DSM 20231 [6], first compound 3.12 µg/mL, partner 16 µg/mL	0.794
S. aureus DSM 20231 [6], first compound 6.24 µg/mL, partner 4 µg/mL	0.629
S. aureus DSM 20231 [6], first compound 6.24 µg/mL, partner 8 µg/mL	0.347
S. aureus DSM 20231 [6], first compound 6.24 µg/mL, partner 16 µg/mL	0.183
S. aureus Newman [7], first compound 0.39 µg/mL, partner 32 µg/mL	0.664
S. aureus Newman [7], first compound 0.39 µg/mL, partner 64 µg/mL	0.15
S. aureus Newman [7], first compound 0.78 µg/mL, partner 32 µg/mL	0.618
S. aureus Newman [7], first compound 0.78 µg/mL, partner 64 µg/mL	0.0783
S. aureus Newman [7], first compound 1.56 µg/mL, partner 32 µg/mL	0.569
S. aureus Newman [7], first compound 1.56 µg/mL, partner 64 µg/mL	0.0656
S. pneumoniae D39V [5], first compound 1 µg/mL, partner 16 µg/mL	0.867
S. pneumoniae D39V [5], first compound 2 µg/mL, partner 16 µg/mL	0.863
S. pneumoniae D39V [5], first compound 4 µg/mL, partner 16 µg/mL	0.613

Cc1ncc([N+](=O)[O-])n1CCO [Metronidazole] + COc1c(N2C[C@@H]3CCCN[C@@H]3C2)c(F)cc2c(=O)c(C(=O)O)cn(C3CC3)c12 [Moxifloxacin]
Conditions	Bliss interaction score
B. subtilis 168 [4]	-0.015
S. aureus DSM 20231 [2]	-0.063
S. aureus Newman [3]	-0.0493
S. pneumoniae D39V [1]	0.0628

Conditions	fitness
B. subtilis 168 [8], first compound 0.625 µg/mL, partner 0.0312 µg/mL	0.0445
B. subtilis 168 [8], first compound 0.625 µg/mL, partner 0.0625 µg/mL	0.0572
B. subtilis 168 [8], first compound 0.625 µg/mL, partner 0.125 µg/mL	0.045
B. subtilis 168 [8], first compound 0.625 µg/mL, partner 2 µg/mL	0.0237
B. subtilis 168 [8], first compound 0.625 µg/mL, partner 4 µg/mL	0.0328
B. subtilis 168 [8], first compound 0.625 µg/mL, partner 8 µg/mL	0.0161
B. subtilis 168 [8], first compound 1.25 µg/mL, partner 0.0312 µg/mL	0.0649
B. subtilis 168 [8], first compound 1.25 µg/mL, partner 0.0625 µg/mL	0.0674
B. subtilis 168 [8], first compound 1.25 µg/mL, partner 0.125 µg/mL	0.0461
B. subtilis 168 [8], first compound 1.25 µg/mL, partner 2 µg/mL	0.0257
B. subtilis 168 [8], first compound 1.25 µg/mL, partner 4 µg/mL	0.0355
B. subtilis 168 [8], first compound 1.25 µg/mL, partner 8 µg/mL	0.022
B. subtilis 168 [8], first compound 2.5 µg/mL, partner 0.0312 µg/mL	0.0682
B. subtilis 168 [8], first compound 2.5 µg/mL, partner 0.0625 µg/mL	0.0527
B. subtilis 168 [8], first compound 2.5 µg/mL, partner 0.125 µg/mL	0.0558
B. subtilis 168 [8], first compound 2.5 µg/mL, partner 2 µg/mL	0.0301
B. subtilis 168 [8], first compound 2.5 µg/mL, partner 4 µg/mL	0.0306
B. subtilis 168 [8], first compound 2.5 µg/mL, partner 8 µg/mL	0.0188
S. aureus DSM 20231 [6], first compound 0.625 µg/mL, partner 0.0075 µg/mL	0.835
S. aureus DSM 20231 [6], first compound 0.625 µg/mL, partner 0.015 µg/mL	0.779
S. aureus DSM 20231 [6], first compound 0.625 µg/mL, partner 0.03 µg/mL	0.635
S. aureus DSM 20231 [6], first compound 1.25 µg/mL, partner 0.0075 µg/mL	0.834
S. aureus DSM 20231 [6], first compound 1.25 µg/mL, partner 0.015 µg/mL	0.807
S. aureus DSM 20231 [6], first compound 1.25 µg/mL, partner 0.03 µg/mL	0.633
S. aureus DSM 20231 [6], first compound 2.5 µg/mL, partner 0.0075 µg/mL	0.883
S. aureus DSM 20231 [6], first compound 2.5 µg/mL, partner 0.015 µg/mL	0.828
S. aureus DSM 20231 [6], first compound 2.5 µg/mL, partner 0.03 µg/mL	0.652
S. aureus Newman [7], first compound 0.625 µg/mL, partner 0.0075 µg/mL	0.77
S. aureus Newman [7], first compound 0.625 µg/mL, partner 0.015 µg/mL	0.62
S. aureus Newman [7], first compound 0.781 µg/mL, partner 0.0075 µg/mL	0.691
S. aureus Newman [7], first compound 0.781 µg/mL, partner 0.015 µg/mL	0.537
S. aureus Newman [7], first compound 0.781 µg/mL, partner 0.03 µg/mL	0.0945
S. aureus Newman [7], first compound 1.25 µg/mL, partner 0.0075 µg/mL	0.811
S. aureus Newman [7], first compound 1.25 µg/mL, partner 0.015 µg/mL	0.598
S. aureus Newman [7], first compound 1.562 µg/mL, partner 0.0075 µg/mL	0.689
S. aureus Newman [7], first compound 1.562 µg/mL, partner 0.015 µg/mL	0.531
S. aureus Newman [7], first compound 1.562 µg/mL, partner 0.03 µg/mL	0.0833
S. aureus Newman [7], first compound 2.5 µg/mL, partner 0.0075 µg/mL	0.757
S. aureus Newman [7], first compound 2.5 µg/mL, partner 0.015 µg/mL	0.596
S. aureus Newman [7], first compound 3.124 µg/mL, partner 0.0075 µg/mL	0.725
S. aureus Newman [7], first compound 3.124 µg/mL, partner 0.015 µg/mL	0.525
S. aureus Newman [7], first compound 3.124 µg/mL, partner 0.03 µg/mL	0.0829
S. pneumoniae D39V [5], first compound 1.073 µg/mL, partner 0.0037 µg/mL	0.834
S. pneumoniae D39V [5], first compound 1.073 µg/mL, partner 0.0075 µg/mL	0.85
S. pneumoniae D39V [5], first compound 1.073 µg/mL, partner 0.015 µg/mL	0.879
S. pneumoniae D39V [5], first compound 1.25 µg/mL, partner 0.005 µg/mL	0.991
S. pneumoniae D39V [5], first compound 1.25 µg/mL, partner 0.01 µg/mL	≥ 1
S. pneumoniae D39V [5], first compound 1.25 µg/mL, partner 0.02 µg/mL	0.975
S. pneumoniae D39V [5], first compound 2.145 µg/mL, partner 0.0037 µg/mL	0.689
S. pneumoniae D39V [5], first compound 2.145 µg/mL, partner 0.0075 µg/mL	0.707
S. pneumoniae D39V [5], first compound 2.145 µg/mL, partner 0.015 µg/mL	0.808
S. pneumoniae D39V [5], first compound 2.5 µg/mL, partner 0.005 µg/mL	≥ 1
S. pneumoniae D39V [5], first compound 2.5 µg/mL, partner 0.01 µg/mL	≥ 1
S. pneumoniae D39V [5], first compound 2.5 µg/mL, partner 0.02 µg/mL	≥ 1
S. pneumoniae D39V [5], first compound 4.29 µg/mL, partner 0.0037 µg/mL	0.742
S. pneumoniae D39V [5], first compound 4.29 µg/mL, partner 0.0075 µg/mL	0.787
S. pneumoniae D39V [5], first compound 4.29 µg/mL, partner 0.015 µg/mL	0.84
S. pneumoniae D39V [5], first compound 5 µg/mL, partner 0.005 µg/mL	≥ 1
S. pneumoniae D39V [5], first compound 5 µg/mL, partner 0.01 µg/mL	0.999
S. pneumoniae D39V [5], first compound 5 µg/mL, partner 0.02 µg/mL	0.983

fitness, S. aureus DSM 20231 [6], one replicate
Conditions	first compound 0.625 µg/mL	first compound 1.25 µg/mL	first compound 2.5 µg/mL
partner 0.06 µg/mL	0.703	0.666	0.703
partner 0.12 µg/mL	0.498	0.486	0.541
